Reference: patent publication US9260473B2, “Bivalent multifunctional ligands targeting Aβ oligomers as treatment for Alzheimer's disease” (Virginia Commonwealth University, priority 2010, dated 2016)
Values belong to the compound of their own block, whether it stands above or below them.

Legend:
[1] = system: AβOs; assay: Western blot assay of AβOs formation in MC65 cells (6E10 antibody); type: cell-based, human; details: 10 μM, 24 hrs after removal of TC
Source text: Inhibition of AβOs production by designed BMAOIs. […] The whole cell assay is a composite of not only Aβ oligomerization inhibition but also permeability, stability and other factors will validate the accessibility and function of our BMAOIs. MC65 is a human neuroblastoma cell line that conditionally expresses C99, the C-terminus fragment of APP using tetracycline (TC) as transgene suppressor.^38 Upon removal of TC, these cells can produce intracellular Aβ aggregates including small AβOs. […] All BMAOIs were first evaluated at a single concentration of 10 μM. Candidate compounds with inhibitory activities at this concentration were further evaluated in a dose-dependent manner in the following assays. […]
Western blot assay. […] Pellet was lysed by sonication in 1× lysis buffer (62.5 mM Tris base, pH6.8, 2% SDS, 50 mM DTT, 10% glycerol, 0.1% bromphenol blue, and […] each chymostatin, leupeptin, aprotinin, pepstatin, and soybean trypsin inhibitor) and protein level was determined using Coomassie Protein Assay Reagent (Pierce, Rockford, Ill.). […]

[2] = system: AβOs; assay: Immunocytochemistry assay of AβOs in MC65 cells (A11 antibody); type: cell-based, human; details: 10 μM, 24 hrs after removal of TC
Protocol: MC65 cells were treated with the indicated compounds (10 μM) immediately after the removal of TC. After 24 hrs, the cells were fixed and immunofluorescently stained for AβOs, CM/LR, and nucleus and imaged with a Leica TCS-SP2 AOBS confocal laser scanning microscope. Five areas were examined.
Immunocytochemistry assay. MC65 cells were plated onto Lab-Tee chamber slides (1×10^4 cells/well). After 24 hrs incubation at 37° C. and 5% CO2, Opti-MEM was added (with or without TC) and followed by test compounds. MC65 cells were incubated for 24 hrs. MC65 cells were rinsed 3× with PBS and incubated with Alexa 488-conjugated CTX-B (10 ug/mL) for 15 min on ice. After rinsing once with ice-cold PBS, cells were fixed for 30 min with 4% paraformaldehyde. MC65 cells were permeabilized for 30 min with 0.1% Triton X 100. Then MC65 cells were stained with A11 rabbit antibody followed by anti-rabbit Alexa 568 (1:500). Finally MC65 cells were treated with DAPI (5 ug/mL) and mounted with Vectashield Mounting Media. Cell fluorescence was analyzed by a Leica TCS-SP2 AOBS confocal laser scanning microscope equipped with blue diode, Argon, and 3 HeNe (lasers as well as a spectrophotometer based detection system with variable detector windows) using excitation lines at 355 nm, 488 nm, and 568 nm for DAPI, Alexa 488-conjugated CTX-B, and Alexa Fluor 568 donkey anti-rabbit IgG. […]

[3] = target: T1, Aβ42 (Homo sapiens, UniProt P05067); assay: Aβ42 oligomerization inhibition assay (Western blot); type: biochemical; details: Aβ42 5 μM, compound 20 μM, 4 hrs at 37° C.
T1 construct: Aβ42 was obtained from American Peptide, Inc. (Sunnyvale, Calif.); purchased American Peptide, Inc. (Sunnyvale, Calif.)

[4] = system: MC65 cells; assay: Cytotoxicity assay in MC65 cells (MTS, +TC/−TC); type: cell-based, human
Source text: Protective effects of 14 on AβOs-induced cytotoxicity in MC65 cells and differentiated human neuroblastoma SH-SY5Y cells. […] To further verify whether 14 can protect cells from extracellular AβOs-induced cytotoxicity, all trans-retinoic acid differentiated human SH-SY5Y cells were employed. […] This may further indicate that while both 1 and 14 can bind to AβOs, CM/LR anchorage of 14 can increase its accessibility to intracellular target AβOs. Since CM/LR are crucial for many aspects of cell signaling and functions, 14 was further evaluated for its potential cytotoxicity in mouse spleen and natural killer (NK) cells.
Cytotoxicity assay in MC65 cells. MC65 cells were seeded in 96-well plates (4×10^4 cells/well) at 37° C., 5% CO2 for 24 hrs. The medium was removed and washed with PBS twice. Opti-MEM and test compounds were added under +TC and −TC conditions. The plates were incubated at 37° C., 5% CO2 for 72 hrs, then 20 uL CellTiter 96 AQueous One Solution (Promega, Madison, Wis.) were added to each well and the plates were incubated at 37° C., 5% CO2 for 2-4 hrs. The plates were read at 490 nm using FlexStation III plate reader (Molecular Devices). The blank with only test compounds in Opti-MEM was set up as background control for all of the tested concentrations. Each data point was averaged from six replicates and the experiments were independently repeated at least three times.

[5] = system: SH-SY5Y cells; assay: Cytotoxicity assay in differentiated SH-SY5Y cells treated with AβOs; type: cell-based, human; details: AβOs 1 μM
Protocol: Cytotoxicity assay in differentiated SH-SY5Y cells. SH-SY5Y cells were plated at 10,000 cells/well in type 1 collagen coated 96-well plates (Invitrogen) and were differentiated in Opti-MEM supplemented with 2% B-27 (Invitrogen) and 10 μM all-trans-retinoic acid for 7 days. The medium was removed and replaced with fresh maintenance medium. Freshly prepared Aβ42 oligomers in Ham's F-12 medium (1 μM) was added to cells for 48 hrs at 37° C. with or without test compounds. After treatment, 20 uL CellTiter 96 AQueous One Solution (Promega, Madison, Wis.) were added to each well and the plates were incubated at 37° C., 5% CO2 for 2-4 hrs. The plates were read at 490 nm in FlexStation III plate reader (Molecular Devices). Each data point was averaged from six replicates and the experiments were independently repeated at least three times.

[6] = system: intracellular oxidative stress; assay: DCFH-DA antioxidation assay in MC65 cells; type: cell-based, human; details: −TC, 24 hrs
Protocol: DCFH-DA antioxidation assay. MC65 cells were seeded in 96-well plates (4×10^4 cells/well). After incubation at 37° C., 5% CO2 for 24 hrs, the medium was removed and washed with PBS. Opti-MEM and test compounds were added (+TC, −TC, and blank with only test compounds). MC65 cells were incubated at 37° C., 5% CO2 for 24 hrs. Then DCFH-DA in Opti-MEM was added to each well (final DCFH-DA concentration was 25 uM) and incubate at 37° C., 5% CO2 for 30 min. The medium was removed and replaced with fresh opti-MEM and plates were read for fluorescence intensity at 485 nm (excitation)/530 nm (emission) using FlexStation III plate reader (Molecular Devices).

T1 sequence (P05067 672-713 limits assumed): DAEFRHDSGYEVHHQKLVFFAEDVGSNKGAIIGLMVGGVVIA

inhibition of oligomerization of Aβ42 [3]: inhibited the oligomerization of Aβ42
SMILES: COc1cc(/C=C/C(=O)CC(=O)/C=C/c2ccc(O)c(OC)c2)ccc1O [compound 1, curcumin, reference compound]
inhibition of the formation of AβOs (Western blot) [1]: did not exhibit inhibition | formation of AβOs (A11 immunocytochemistry) [2]: slightly suppressed | toxic effects on MC65 cell viability in the presence of TC ([4]; +TC, tested concentrations, 72 hrs, MTS): no toxic effects | protective effects on MC65 cell viability upon removal of TC ([4]; −TC, 72 hrs, MTS): minimal protective effects | protection of SH-SY5Y cell viability from AβOs ([5]; 48 hrs, 16 μM): not at 16 μM | protection of SH-SY5Y cell viability from AβOs ([5]; 48 hrs, 2, 4, and 8 μM): moderate protective activities | suppression of intracellular oxidative stress (DCFH-DA fluorescence) [6]: suppressed the intracellular oxidative stress in a dose-depndent manner

SMILES: Cc1c(C)c2c(c(C)c1O)CCC(C)(C(=O)O)O2 (stereo not shown) [trolox, 6-hydroxy-2,5,7,8-tetramethyl chroman-2-carboxylic acid]
rescue of MC65 cells from AβOs-induced cytotoxicity ([4]; −TC, 32 μM): completely rescued

SMILES: CC(=O)N[C@@H](CS)C(=O)O [NAC, N-acetylcysteine]
rescue of MC65 cells from AβOs-induced cytotoxicity ([4]; −TC): 48%
